Results reported in the supplement of paper PMC11061612.

Assays:
Experiment in all cases: combination Emax (second highest fraction inhibited in the dose matrix, 72 h); higher = more inhibition; extreme values may be limits of the assay
786-0 (Kidney Carcinoma) = test system: 786-0 (Kidney Carcinoma)
Method in brief: (§1)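 Cell lines in DMEM/F12 or RPMI with 10% FBS were plated in 1536-well plates, held 24 hours at 37°C, 5% CO2, then given two-drug dose matrices for 72 hours (DMSO typically 0.2%). Viability was read by CellTiter-Glo 2.0 luminescence and scaled as inhibition from 0 (vehicle wells) to 1 (blank wells). Combination Emax is the second-highest inhibition in the matrix; Bliss excess is observed combination effect minus expected EA + EB − EA·EB, EA and EB being single-agent effects.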

[1] = test system: AN3-CA (Endometrial Carcinoma)
Method in brief: as §1

[2] = test system: BALL-1 (B-Lymphoblastic Leukemia)
Method in brief: as §1

[3] = test system: CML-T1 (Chronic Myelogenous Leukemia)
Method in brief: as §1

ES-2 (Ovarian Carcinoma) = test system: ES-2 (Ovarian Carcinoma)
Method in brief: as §1

[4] = test system: HSC-3 (Oral Cavity Carcinoma)
Method in brief: as §1

HuO-3N1 (Osteosarcoma) = test system: HuO-3N1 (Osteosarcoma)
Method in brief: as §1

[5] = test system: LAMA-84 (Chronic Myelogenous Leukemia)
Method in brief: as §1

[6] = test system: LOUCY (T-Lymphoblastic Leukemia)
Method in brief: as §1

[7] = test system: NCI-H196 (Small Cell Lung Carcinoma)
Method in brief: as §1

[8] = test system: NKM-1 (Acute Myeloid Leukemia)
Method in brief: as §1

[9] = test system: OV-90 (Ovarian Carcinoma)
Method in brief: as §1

[10] = test system: PANC-02-03 (Pancreatic Carcinoma)
Method in brief: as §1

[11] = test system: PC-14 (Lung Adenocarcinoma)
Method in brief: as §1

[12] = test system: RERF-LC-KJ (Lung Adenocarcinoma)
Method in brief: as §1

[13] = test system: RL95-2 (Endometrial Carcinoma)
Method in brief: as §1

RT4 (Bladder Carcinoma) = test system: RT4 (Bladder Carcinoma)
Method in brief: as §1

[14] = test system: SJRH30 (Rhabdomyosarcoma)
Method in brief: as §1

[15] = test system: SW684 (Other Solid Carcinomas)
Method in brief: as §1

Compound	combination Emax (786-0 (Kidney Carcinoma))	combination Emax [1]	combination Emax [2]	combination Emax [3]	combination Emax (ES-2 (Ovarian Carcinoma))	combination Emax [4]	combination Emax (HuO-3N1 (Osteosarcoma))	combination Emax [5]	combination Emax [6]	combination Emax [7]	combination Emax [8]	combination Emax [9]	combination Emax [10]	combination Emax [11]	combination Emax [12]	combination Emax [13]	combination Emax (RT4 (Bladder Carcinoma))	combination Emax [14]	combination Emax [15]
CN(C)CCCOc1ccc(-c2ccc3ncc4c(c3c2)n(C2CCOCC2)c(=O)n4C)cn1 [AZD0156] + O=C(c1cc(Cc2n[nH]c(=O)c3ccccc23)ccc1F)N1CCN(C(=O)C2CC2)CC1 [Olaparib] (first compound max 3 µM, partner max 3 µM)	0.223	0.352	0.79	0.688	0.448	0.467	0.289	0.472	0.368	0.145	0.585	0.257	0.248	0.236	0.368	0.384	0.174	0.48	0.141
C=CCn1c(=O)c2cnc(Nc3ccc(N4CCN(C)CC4)cc3)nc2n1-c1cccc(C(C)(C)O)n1 [AZD1775] + C1CN(CCC1(C(=O)N[C@@H](CCO)C2=CC=C(C=C2)Cl)N)C3=NC=NC4=C3C=CN4 [Capivasertib] (first compound max 3 µM, partner max 3 µM)	0.817	0.905	1	0.932	0.817	0.773	0.633	0.939	1	0.578	0.954	0.587	0.605	0.859	0.548	0.963	0.712	0.955	0.467
COc1nnc2ccc(N3CCC(c4ccc(OCCN5CCN(C)C(=O)[C@H]5C)cc4)CC3)nn12 [AZD5153] + C=CCn1c(=O)c2cnc(Nc3ccc(N4CCN(C)CC4)cc3)nc2n1-c1cccc(C(C)(C)O)n1 [AZD1775] (first compound max 1 µM, partner max 1 µM)	0.641	0.435	1	0.945	0.747	0.795	0.466	0.978	1	0.473	0.904	0.378	0.645	0.883	0.957	0.621	0.571	0.942	0.452
COc1nnc2ccc(N3CCC(c4ccc(OCCN5CCN(C)C(=O)[C@H]5C)cc4)CC3)nn12 [AZD5153] + CC1(C)CCC(CN2CCN(c3ccc(C(=O)NS(=O)(=O)c4ccc(NCC5CCOCC5)c([N+](=O)[O-])c4)c(Oc4cnc5[nH]ccc5c4)c3)CC2)=C(c2ccc(Cl)cc2)C1 [Venetoclax] (first compound max 1 µM, 7x7, partner max 1 µM)	0.503	0.2	1	0.443	0.546	0.69	0.337	0.82	1	0.32	0.978	0.387	0.582	0.419	0.971	0.426	0.483	0.383	0.531
COc1nnc2ccc(N3CCC(c4ccc(OCCN5CCN(C)C(=O)[C@H]5C)cc4)CC3)nn12 [AZD5153] + CCN(CCO)CCCOc1ccc2c(Nc3cc(CC(=O)Nc4cccc(F)c4)[nH]n3)ncnc2c1 [AZD2811] (first compound max 1 µM, 7x7, partner max 1 µM)	0.552	0.297	0.948	0.684	0.618	0.773	0.421	0.892	0.97	0.314	0.922	0.352	0.592	0.5	0.971	0.524	0.516	0.799	0.502
COc1nnc2ccc(N3CCC(c4ccc(OCCN5CCN(C)C(=O)[C@H]5C)cc4)CC3)nn12 [AZD5153] + C[C@@H]1COCCN1C2=NC(=NC(=C2)C3(CC3)[S@](=N)(=O)C)C4=C5C=CNC5=NC=C4 [AZD6738] (first compound max 1 µM, 7x7, partner max 10 µM)	0.754	0.55	1	0.976	0.877	0.845	0.427	0.97	0.997	0.329	0.98	0.563	0.727	0.85	0.968	0.733	0.708	0.945	0.464
COc1nnc2ccc(N3CCC(c4ccc(OCCN5CCN(C)C(=O)[C@H]5C)cc4)CC3)nn12 [AZD5153] + Cc1c2c(nn1C)CSCc1cc(n(C)n1)CSc1cc(c3ccccc3c1)OCCCc1c(C(=O)O)n(C)c3c-2c(Cl)ccc13 [AZD5991] (first compound max 1 µM, 7x7, partner max 1 µM)	0.557	0.544	0.98	0.523	0.654	0.778	0.628	0.928	0.997	0.307	1	0.365	0.595	0.441	0.979	0.928	0.911	0.97	0.46
COc1nnc2ccc(N3CCC(c4ccc(OCCN5CCN(C)C(=O)[C@H]5C)cc4)CC3)nn12 [AZD5153] + Cn1cnc2c(F)c(Nc3ccc(Br)cc3Cl)c(C(=O)NOCCO)cc21 [Selumetinib] (first compound max 1 µM, 7x7, partner max 10 µM)	0.577	0.268	0.859	0.452	0.705	0.812	0.356	1	0.729	0.276	0.995	0.817	0.866	0.589	0.868	0.66	0.686	0.486	0.531
NC1(C(=O)N[C@@H](CCO)c2ccc(Cl)cc2)CCN(c2ncnc3[nH]ccc23)CC1 [Capivasertib] + CC(=O)c1c(C)c2cnc(Nc3ccc(N4CCNCC4)cn3)nc2n(C2CCCC2)c1=O [Palbociclib] (first compound max 10 µM, 7x7, partner max 10 µM)	0.681	0.803	0.597	0.939	0.72	0.78	0.432	0.558	0.688	0.258	0.796	0.305	0.202	0.582	0.436	0.904	0.362	0.794	0.54
NC1(C(=O)N[C@@H](CCO)c2ccc(Cl)cc2)CCN(c2ncnc3[nH]ccc23)CC1 [Capivasertib] + CC(C)n1c(=O)n(C)c2cnc3cc(F)c(-c4ccc(OCCCN5CCCCC5)nc4)cc3c21 [AZD1390] (first compound max 10 µM, 7x7, partner max 0.3 µM)	0.489	0.756	0.576	0.656	0.257	0.608	0.46	0.328	0.623	0.267	0.459	0.284	0.192	0.392	0.449	0.823	0.0517	0.701	0.536
NC1(C(=O)N[C@@H](CCO)c2ccc(Cl)cc2)CCN(c2ncnc3[nH]ccc23)CC1 [Capivasertib] + CCN(CCO)CCCOc1ccc2c(Nc3cc(CC(=O)Nc4cccc(F)c4)[nH]n3)ncnc2c1 [AZD2811] (first compound max 10 µM, 7x7, partner max 1 µM)	0.553	0.786	0.74	0.9	0.413	0.689	0.494	0.612	0.918	0.358	0.779	0.364	0.24	0.505	0.503	1	0.457	0.734	0.617
NC1(C(=O)N[C@@H](CCO)c2ccc(Cl)cc2)CCN(c2ncnc3[nH]ccc23)CC1 [Capivasertib] + COc1nnc2ccc(N3CCC(c4ccc(OCCN5CCN(C)C(=O)[C@H]5C)cc4)CC3)nn12 [AZD5153] (first compound max 10 µM, 7x7, partner max 1 µM)	0.733	0.75	0.973	0.703	0.766	0.861	0.481	0.907	0.998	0.326	1	0.596	0.602	0.638	0.877	0.9	0.457	0.876	0.579
CS(=O)(=O)CCNCc1ccc(-c2ccc3ncnc(Nc4ccc(OCc5cccc(F)c5)c(Cl)c4)c3c2)o1 [Lapatinib] + NC1(c2ccc(-c3nc4ccn5c(=O)[nH]nc5c4cc3-c3ccccc3)cc2)CCC1 [MK-2206] (first compound max 10 µM, 7x7, partner max 10 µM)	–	–	–	0.948	0.936	–	0.869	0.642	0.912	–	0.94	0.623	0.643	0.993	–	–	–	0.914	0.686
C[C@@H](c1ccc2nccn2c1)n1nnc2ncc(-c3cnn(C)c3)nc21 [Savolitinib] + CN(CC[C@H](CSC1=CC=CC=C1)NC2=C(C=C(C=C2)S(=O)(=O)NC(=O)C3=CC=C(C=C3)N4CCC(CC4)[C@H](C5=CC=CC=C5C6=CC=C(C=C6)Cl)O)S(=O)(=O)C(F)(F)F)CCO [AZD4320] (first compound max 1 µM, 7x7, partner max 1 µM)	0.149	0.217	1	–	0.236	0.185	0.201	–	–	0.2	–	–	–	0.173	0.206	0.167	0.376	0.265	–
